Measurements taken from patent US20200048308A1, “INFLUENZA VIRUS NE[…]” (priority 2016, published 2020).
Like-named read-outs stand apart in the source and are kept apart here.

Key:
[1] = test system: influenza virus A/New Caledonia (H1); assay: Virus neutralization assay (VNA) on Calu-3 cells; format: cell-based, influenza A virus H1N1 A/New Caledonia/20/1999
[2] = target: H1/Cal HA (biotinylated full length trimeric HA, A/California/07/2009) (Influenza A virus, UniProt C3W5X2); assay: AlphaLISA competition assay with HB80.4, H1/Cal HA; format: binding, influenza A virus H1N1 A/California/07/2009
Excerpt: (§1) Binding competition studies were designed to test compounds of the invention for competition with other well characterized HA binding proteins (such as e.g. CR9114, CR6261 and HB80.4) with known epitopes on HA. The epitopes where either located at the stem of the HA (viral membrane proximal part of HA) or, for control purposes, at the head of HA (viral membrane distal part of HA). If competition was observed, it was assumed that both molecules bind to a similar or at least overlapping epitope at the surface of HA. Competition with a HA head- and stem-binder was interpreted as unspecific binding.
(§2) Hereto an AlphaLISA competition assay (Perkin Elmer) was established which relied on biotinylated full length and trimeric HA proteins (Protein Sciences, 10 μL, 0.5 nM final concentration in 50 μL) bound by HA-specific binders. The interaction between HA and the binder was detected after 1 h incubation at room temperature (RT) with two beads, a streptavidin donor bead recognizing HA (10 μL of 10 μg/mL) and an anti Fc bead (10 μg/mL) recognizing the IgGs used. If after an additional hour of incubation at RT the excited donor bead (680 nm) and acceptor bead are in close proximity, an energy transfer (singlet oxygen) can be measured as a luminescence signal of the acceptor bead (Perkin Elmer EnVision plate reader). The signal intensity in this homogeneous assay format is directly proportional to the binding strength (affinity/avidity) between both binding partners.

[3] = target: H1/Nca HA (biotinylated full length trimeric HA, A/New Caledonia/20/1999) (Influenza A virus, UniProt Q6WG00); assay: AlphaLISA competition assay with HB80.4, H1/NCa HA; format: binding, influenza A virus H1N1 A/New Caledonia/20/1999
Excerpt: as §1, §2

[4] = Calu-3 cells, 5 TCID50/50 μL virus, 4 days, NP ELISA readout
[5] = ALC_H1_NCa_HB80.4 calculated pIC50, AlphaLISA competition with HB80.4 on H1 NCa HA, 0.5 nM HA

CSCC[C@@H]1NC(=O)CNC(=O)CNC(=O)[C@H](C)NC(=O)[C@H](C(C)C)NC(=O)CNC(=O)[C@H](CC(C)C)NC(=O)[C@@H]2CCCN2C(=O)[C@H](CC(=O)O)NC(=O)[C@H](CCC(=O)O)NC(=O)[C@H](Cc2ccc(O)cc2)NC(=O)[C@H](CC(C)C)NC(=O)[C@@H](NC(=O)CCC(=O)O)CSSC[C@@H](C(N)=O)NC(=O)CNC1=O [CP141069, Suc-Cys-Leu-Tyr-Glu-Asp-Pro-Leu-Gly-Val-Ala-Gly-Gly-Met-Gly-Cys-NH2]
VNA_H1_NCa_Calu3 pIC50 [1, 4]: 6.1
IC50 [2]: 316 nM
IC50 [3, 5]: 158 nM

CSCC[C@@H]1NC(=O)CNC(=O)CNC(=O)[C@H](C)NC(=O)[C@H](C(C)C)NC(=O)CNC(=O)[C@H](CC(C)C)NC(=O)[C@@H]2CCCN2C(=O)[C@H](CC(=O)O)NC(=O)[C@H](CCC(=O)O)NC(=O)[C@H](Cc2ccc(O)cc2)NC(=O)[C@@H](NC(=O)CCC(=O)O)CSSC[C@@H](C(N)=O)NC1=O [CP141070, Suc-Cys-Tyr-Glu-Asp-Pro-Leu-Gly-Val-Ala-Gly-Gly-Met-Cys-NH2]
VNA_H1_NCa_Calu3 pIC50 [1]: 4.4
IC50 [2]: 6310 nM
IC50 [3]: 3980 nM

CSCC[C@@H]1NC(=O)CNC(=O)CNC(=O)[C@H](C)NC(=O)[C@H](C(C)C)NC(=O)CNC(=O)[C@H](CC(C)C)NC(=O)[C@@H]2CCCN2C(=O)[C@H](CC(=O)O)NC(=O)[C@H](CCCNC(=N)N)NC(=O)[C@H](Cc2ccc(O)cc2)NC(=O)[C@H](CC(C)C)NC(=O)[C@@H](NC(=O)CCC(=O)O)CSSC[C@@H](C(N)=O)NC(=O)CNC1=O [CP141076, Suc-Cys-Leu-Tyr-Arg-Asp-Pro-Leu-Gly-Val-Ala-Gly-Gly-Met-Gly-Cys-NH2]
VNA_H1_NCa_Calu3 pIC50 [1, 4]: 6.0
IC50 [2]: 100 nM
IC50 [3, 5]: 126 nM

CSCC[C@@H]1NC(=O)CNC(=O)CNC(=O)[C@H](C)NC(=O)[C@H](C(C)C)NC(=O)CNC(=O)[C@H](CC(C)C)NC(=O)[C@@H]2CCCN2C(=O)[C@H](CC(=O)O)NC(=O)[C@H](CCC(=O)O)NC(=O)[C@H](Cc2ccc(O)cc2)NC(=O)[C@H](CC(C)C)NC(=O)[C@H](CO)NC(=O)[C@H](C(C)C)NC(=O)CNC(=O)[C@H]2CCCN2C(=O)[C@H](Cc2ccc(O)cc2)NC(=O)[C@H](C(C)C)NC(=O)CNC1=O [CP141082, Gly-Val-Ser-Leu-Tyr-Glu-Asp-Pro-Leu-Gly-Val-Ala-Gly-Gly-Met-Gly-Val-Tyr-D-Pro]
VNA_H1_NCa_Calu3 pIC50 [1, 4]: 4.3
IC50 [2]: 20 nM
IC50 [3, 5]: 20 nM

CSCC[C@@H]1NC(=O)CNC(=O)CNC(=O)[C@H](C)NC(=O)[C@H](C(C)C)NC(=O)CNC(=O)[C@H](CC(C)C)NC(=O)[C@@H]2CCCN2C(=O)[C@H](CC(=O)O)NC(=O)[C@H](CCC(=O)O)NC(=O)[C@H](Cc2ccc(O)cc2)NC(=O)[C@H](CC(C)C)NC(=O)CNC(=O)[C@H]2CCCN2C(=O)CNC1=O [CP141084, Gly-Leu-Tyr-Glu-Asp-Pro-Leu-Gly-Val-Ala-Gly-Gly-Met-Gly-D-Pro]
VNA_H1_NCa_Calu3 pIC50 [1, 4]: 5.7
IC50 [2]: 794 nM
IC50 [3, 5]: 398 nM

CSCC[C@@H]1NC(=O)CNC(=O)CNC(=O)[C@H](C)NC(=O)[C@H](C(C)C)NC(=O)CNC(=O)[C@H](CC(C)C)NC(=O)[C@@H]2CCCN2C(=O)[C@H](CC(=O)O)NC(=O)[C@H](CCC(=O)O)NC(=O)[C@H](Cc2ccc(O)cc2)NC(=O)[C@H](CC(C)C)NC(=O)[C@H](CO)NC(=O)[C@H](C(C)C)NC(=O)[C@@H]2CCCN2C(=O)[C@H]2CCCN2C(=O)[C@H](Cc2ccc(O)cc2)NC(=O)[C@H](C(C)C)NC(=O)CNC1=O [CP141085, Pro-Val-Ser-Leu-Tyr-Glu-Asp-Pro-Leu-Gly-Val-Ala-Gly-Gly-Met-Gly-Val-Tyr-D-Pro]
VNA_H1_NCa_Calu3 pIC50 [1, 4]: 5.9
IC50 [2]: 15.8 nM
IC50 [3, 5]: 12.6 nM
IC50 ([3]; IC50 in the alphalisa assay, best compound, strain not stated in text (matches pIC50 7.9 on H1 NCa)): 13 nM

CSCC[C@@H]1NC(=O)CNC(=O)CNC(=O)[C@H](C)NC(=O)[C@H](C(C)C)NC(=O)CNC(=O)[C@H](CC(C)C)NC(=O)[C@@H]2CCCN2C(=O)[C@H](CC(=O)O)NC(=O)[C@H](CCC(=O)O)NC(=O)[C@H](Cc2ccc(O)cc2)NC(=O)[C@H](CC(C)C)NC(=O)[C@@H]2CCCN2C(=O)[C@H]2CCCN2C(=O)CNC1=O [CP141086, Pro-Leu-Tyr-Glu-Asp-Pro-Leu-Gly-Val-Ala-Gly-Gly-Met-Gly-D-Pro]
VNA_H1_NCa_Calu3 pIC50 [1, 4]: 4.6
IC50 [2]: 1580 nM
IC50 [3, 5]: 200 nM

CSCC[C@@H]1NC(=O)CNC(=O)CNC(=O)[C@H](C)NC(=O)[C@H](C(C)C)NC(=O)CNC(=O)[C@H](CC(C)C)NC(=O)[C@@H]2CCCN2C(=O)[C@H](CC(=O)O)NC(=O)[C@H](CCC(=O)O)NC(=O)[C@H](Cc2ccc(O)cc2)NC(=O)[C@H](CC(C)C)NC(=O)CNC(=O)CNC1=O [CP141087, Leu-Tyr-Glu-Asp-Pro-Leu-Gly-Val-Ala-Gly-Gly-Met-Gly-Gly]
VNA_H1_NCa_Calu3 pIC50 [1]: 4.9
IC50 [2]: 501 nM
IC50 [3]: 631 nM

CSCC[C@@H]1NC(=O)CNC(=O)CNC(=O)[C@H](C)NC(=O)[C@H](C(C)C)NC(=O)CNC(=O)[C@H](CC(C)C)NC(=O)[C@@H]2CCCN2C(=O)[C@H](CC(=O)O)NC(=O)[C@H](CCC(=O)O)NC(=O)[C@H](Cc2ccc(O)cc2)NC(=O)[C@H](CC(C)C)NC(=O)CNC1=O [CP141088, Leu-Tyr-Glu-Asp-Pro-Leu-Gly-Val-Ala-Gly-Gly-Met-Gly]
VNA_H1_NCa_Calu3 pIC50 [1]: 4.4
IC50 [2]: 251 nM
IC50 [3]: 251 nM

CSCC[C@@H]1NC(=O)CNC(=O)CNC(=O)[C@H](C)NC(=O)[C@H](C(C)C)NC(=O)CNC(=O)[C@H](CC(C)C)NC(=O)[C@@H]2CCCN2C(=O)[C@H](CC(=O)O)NC(=O)[C@H](CCC(=O)O)NC(=O)[C@H](Cc2ccc(O)cc2)NC(=O)[C@H](CC(C)C)NC(=O)[C@H](CO)NC(=O)[C@H]2CCCN2C(=O)[C@@H]2CCCN2C(=O)[C@H](C(C)C)NC(=O)CNC1=O [CP141091, D-Pro-Ser-Leu-Tyr-Glu-Asp-Pro-Leu-Gly-Val-Ala-Gly-Gly-Met-Gly-Val-Pro]
VNA_H1_NCa_Calu3 pIC50 [1]: 4.2
IC50 [2]: 5010 nM
IC50 [3]: 6310 nM
